Test results reported in the NIST ThermoML archive (doi:10.1021/je300339q).

Experiments:
[1] = mn = molality of the nth substance listed, in mol/kg; settings: 101 kPa, Liquid, Direct current cell with electrodes
[2] = 101.33 kPa, Liquid; for viscosity: Capillary tube (Ostwald / Ubbelohde) method; for mass density: Vibrating tube method

CCCCn1cc[n+](CCC)c1.[Br-] [1-butyl-3-propyl-1H-imidazolium bromide] + CC#N
molar conductivity [S·m2/mol], [1]
Settings | 308 K | 313 K | 318 K
m1 = 0.01014 | 0.00955 | 0.010075 | 0.01063
m1 = 0.01352 | 0.00916 | 0.009604 | 0.010128
m1 = 0.01803 | 0.008751 | 0.009155 | 0.009627
m1 = 0.02405 | 0.008325 | 0.008691 | 0.009114
m1 = 0.0275 | 0.008123 | – | –
m1 = 0.03209 | 0.007883 | 0.008213 | 0.008595
m1 = 0.04281 | 0.007424 | 0.007724 | 0.008054
m1 = 0.04875 | – | 0.007467 | 0.007807
m1 = 0.05714 | 0.006944 | 0.007222 | 0.007523
m1 = 0.0656 | 0.006707 | 0.006956 | 0.007255
m1 = 0.07628 | 0.006433 | 0.006701 | 0.006968
m1 = 0.08982 | 0.006124 | 0.006393 | 0.006648
m1 = 0.09987 | 0.00592 | 0.006199 | 0.006435

CCCCn1cc[n+](CCC)c1.[Br-] [1-butyl-3-propyl-1H-imidazolium bromide] + CO
molar conductivity [S·m2/mol], [1]
Settings | 308 K | 313 K | 318 K
m1 = 0.005755 | 0.006546 | – | 0.00748
m1 = 0.007673 | 0.006395 | 0.006815 | 0.00729
m1 = 0.01023 | 0.006239 | 0.006658 | 0.007119
m1 = 0.01364 | 0.006083 | 0.006493 | 0.006946
m1 = 0.01819 | 0.005932 | 0.006333 | 0.006781
m1 = 0.02425 | 0.005792 | 0.006185 | 0.006627
m1 = 0.03234 | 0.005668 | 0.006052 | 0.006491
m1 = 0.04311 | 0.005561 | 0.005936 | 0.006371
m1 = 0.05749 | 0.005468 | 0.005832 | 0.006257
m1 = 0.07665 | 0.005372 | 0.005703 | 0.006123
m1 = 0.09017 | 0.005304 | 0.005611 | 0.006016
m1 = 0.1002 | 0.005238 | 0.00554 | 0.005923

CCCCn1cc[n+](CCC)c1.[Br-] [1-butyl-3-propyl-1H-imidazolium bromide] + O
molar conductivity [S·m2/mol], [1]
Settings | 308 K | 313 K | 318 K
m1 = 0.005651 | 0.012224 | 0.013136 | 0.01387
m1 = 0.007536 | 0.012106 | 0.013013 | 0.01376
m1 = 0.01005 | 0.011972 | 0.012872 | 0.013625
m1 = 0.01341 | 0.011818 | 0.012712 | 0.013474
m1 = 0.0179 | 0.011642 | 0.012531 | 0.013305
m1 = 0.02389 | 0.011441 | 0.01232 | 0.013116
m1 = 0.0319 | 0.011212 | 0.012091 | 0.012905
m1 = 0.04262 | 0.01095 | 0.011824 | 0.012669
m1 = 0.05696 | 0.01065 | 0.011518 | 0.012401
m1 = 0.07621 | 0.010304 | 0.011165 | 0.012094
m1 = 0.08987 | 0.010084 | 0.01094 | 0.011898
m1 = 0.1 | 0.00996 | 0.0108 | 0.01177

CC#N [acetonitrile]
[2]
Settings | mass density [kg/m3] | viscosity [mPa·s]
308.15 K | 765.64 | 0.3125
313.15 K | 759.7 | 0.3042
318.15 K | 755.01 | 0.2903

CO [methanol]
[2]
Settings | mass density [kg/m3] | viscosity [mPa·s]
308.15 K | 777.18 | 0.4747
313.15 K | 772.5 | 0.444
318.15 K | 767.7 | 0.4185
